From ChEMBL document CHEMBL1201862, “PubChem BioAssay data set” (2004)
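Briefly, cells in 96-well plates were exposed to five compound concentrations for 48 h, and endpoints were estimated by linear interpolation. GI50 = concentration required for 50% inhibition of growth.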 Active and inactive are the calls of the source. Rule as the data show it: active = GI50 up to about 1.1 µM and inactive = higher.

Experiments:
Assay in all cases: NCI-60 cell line screen, 48 h
A549 = test system: A549
OVCAR-8 = test system: OVCAR-8
T47D = test system: T47D
HCC 2998 = test system: HCC 2998
CAKI-1 = test system: CAKI-1
SNB-19 = test system: SNB-19
OVCAR-4 = test system: OVCAR-4
TK-10 = test system: TK-10
U-251 = test system: U-251
PC-3 = test system: PC-3
UACC-257 = test system: UACC-257
RPMI-8226 = test system: RPMI-8226
SF-295 = test system: SF-295
A498 = test system: A498
HOP-92 = test system: HOP-92
DU-145 = test system: DU-145
KM12 = test system: KM12
SK-MEL-2 = test system: SK-MEL-2
Malme-3M = test system: Malme-3M
IGROV-1 = test system: IGROV-1

Measured: GI50

COc1cc(/C=C2\C(=O)N(c3ccc(Cl)cc3)C(c3ccccc3)S2(=O)=O)cc(OC)c1OC (centres undefined)
inactive: A549 17.8 µM | OVCAR-8 93.1 µM | T47D 2.77 µM | HCC 2998 41.4 µM | CAKI-1 38.5 µM | SNB-19 20 µM | OVCAR-4 8.89 µM | TK-10 > 63 µM | U-251 29.1 µM | PC-3 22.8 µM | UACC-257 21.4 µM | RPMI-8226 7.46 µM | SF-295 11.9 µM | A498 > 45.5 µM | HOP-92 51.9 µM | DU-145 > 100 µM | KM12 3.72 µM | SK-MEL-2 9.77 µM | Malme-3M 42.3 µM

Nc1nc(Cl)cc(NCC2(CO)CC(c3ccccc3)C2)n1 (centres undefined)
inactive: A549 26.2 µM | OVCAR-8 34.7 µM | IGROV-1 > 100 µM | T47D 11.4 µM | CAKI-1 > 100 µM | SNB-19 88.7 µM | OVCAR-4 24.4 µM | TK-10 95.1 µM | U-251 50.7 µM | PC-3 18 µM | UACC-257 20.5 µM | RPMI-8226 17.2 µM | SF-295 > 100 µM | A498 22.8 µM | HOP-92 22.3 µM | DU-145 > 100 µM | KM12 39.5 µM | SK-MEL-2 62.4 µM | Malme-3M 46.5 µM

CCCCCCCCCCCCN1[C@H]2CCC[C@H]2C(O)[C@@H]2CCC[C@@H]21 (some centres undefined)
inactive: A549 > 100 µM | OVCAR-8 > 100 µM | IGROV-1 98.9 µM | T47D 29.2 µM | HCC 2998 > 100 µM | CAKI-1 > 100 µM | SNB-19 > 100 µM | OVCAR-4 > 100 µM | U-251 77.4 µM | PC-3 88.5 µM | UACC-257 > 100 µM | RPMI-8226 > 100 µM | A498 > 100 µM | HOP-92 > 100 µM | DU-145 > 100 µM | KM12 68.2 µM | SK-MEL-2 > 100 µM

O=C(NCc1ccc(Cl)c(Cl)c1)c1nc2ccccc2nc1NCc1ccc(Cl)c(Cl)c1
inactive: A549 > 100 µM | OVCAR-8 > 100 µM | IGROV-1 > 100 µM | T47D > 100 µM | HCC 2998 > 100 µM | CAKI-1 > 100 µM | SNB-19 > 100 µM | TK-10 > 100 µM | U-251 > 100 µM | PC-3 > 100 µM | UACC-257 > 100 µM | SF-295 > 100 µM | A498 > 100 µM | HOP-92 > 100 µM | DU-145 > 100 µM | KM12 > 100 µM | SK-MEL-2 > 100 µM

N#CCCN(CCC#N)c1ccc(/C=C2\N=C(c3ccccc3)N(c3ccc(F)cc3)C2=O)cc1
inactive: A549 > 100 µM | OVCAR-8 > 100 µM | IGROV-1 > 100 µM | T47D > 100 µM | CAKI-1 > 100 µM | SNB-19 > 100 µM | OVCAR-4 > 100 µM | TK-10 > 100 µM | U-251 > 100 µM | PC-3 > 100 µM | UACC-257 > 100 µM | RPMI-8226 > 100 µM | SF-295 > 100 µM | A498 > 100 µM | HOP-92 > 100 µM | DU-145 > 100 µM | KM12 > 100 µM | SK-MEL-2 > 100 µM | Malme-3M > 100 µM

Cc1c(NC(=S)N/N=C\C(=N/NC(=S)Nc2c(C)n(C)n(-c3ccccc3)c2=O)c2ccccc2)c(=O)n(-c2ccccc2)n1C
inactive: A549 > 100 µM | T47D > 100 µM | HCC 2998 > 100 µM | CAKI-1 > 100 µM | SNB-19 > 100 µM | OVCAR-4 > 100 µM | TK-10 > 100 µM | U-251 > 100 µM | PC-3 > 100 µM | UACC-257 > 100 µM | SF-295 > 100 µM | A498 > 100 µM | HOP-92 > 100 µM | DU-145 > 100 µM | KM12 > 100 µM | SK-MEL-2 > 100 µM | Malme-3M 87.1 µM

Oc1c(C2=NNC(c3ccc(Cl)cc3Cl)C2)ccc2ccccc12 (centres undefined)
inactive: A549 29 µM | OVCAR-8 29.4 µM | IGROV-1 14.4 µM | T47D 62.2 µM | HCC 2998 34.5 µM | CAKI-1 66.5 µM | OVCAR-4 58.6 µM | TK-10 66.2 µM | U-251 32.5 µM | PC-3 31.6 µM | UACC-257 42.3 µM | RPMI-8226 32 µM | SF-295 28.3 µM | A498 71.4 µM | HOP-92 31.7 µM | DU-145 64.9 µM | KM12 26.2 µM | SK-MEL-2 35.8 µM | Malme-3M 17.9 µM

COc1cc(CC2CC(c3ccc4c(c3)OCO4)OC2=O)cc(OC)c1OC (centres undefined)
inactive: A549 > 100 µM | OVCAR-8 > 100 µM | T47D 39 µM | HCC 2998 > 100 µM | CAKI-1 59.2 µM | SNB-19 > 100 µM | TK-10 > 100 µM | U-251 > 100 µM | PC-3 91.6 µM | UACC-257 77.4 µM | RPMI-8226 25.1 µM | SF-295 > 100 µM | A498 > 100 µM | HOP-92 13.6 µM | DU-145 > 100 µM | KM12 > 100 µM | Malme-3M 61.1 µM
